Experimental data as given in patent US6528510B1, “HIV protease inhibitors” (Warner-Lambert Company, priority 1998, dated 2003).
Like-named read-outs stand apart in the source and are kept apart here.

Tests used:
[1] = biological target: T1, Recombinant HIV-1 protease (Human immunodeficiency virus type 1 group M subtype B, UniProt P04585); assay: HIV protease assay (Ki determination, HPLC readout of substrate III cleavage); assay type: biochemical
T1 construct: Recombinant HIV-1 protease (>96% purity); purchased Bachem Bioscience, Inc. (King of Prussia, Pa.)
Protocol: Recombinant HIV-1 protease (>96% purity) and HIV protease substrate III (the undecapeptide H-His-Lys-Ala-Arg-Val-Leu-Nph-Glu-Ala-Nle-Ser-NH2, 97% purity) were purchased from Bachem Bioscience, Inc. (King of Prussia, Pa.).
The methods employed follow the procedures of Tummino, et al., Archives of Biochemistry and Biophysics, 1995;316:523). […] (total volume, […]). […] The final inhibitor concentrations used were 0 (0.1, 0.2, in some experiments), 0.5, 1, 2, 5, 10, 20, 50, and 100 μM. The solution was mixed, incubated for 5 minutes and the reaction quenched by addition of trifluoracetic acid, 2% final. The (leu-p-nitro-phe) bond of the substrate is cleaved by the enzyme and substrate arid products separated by reverse-phase HPLC. Absorbance was measured at 220 nm, peak areas determined, and percentage conversion to product used to calculate percentage control (=[% conversion (+inhibitor)/% conversion (−inhibitor)]×100).

[2] = test system: HIV infected lymphocyte derived CEM cells; assay: Cellular infection assay in CEM cells, XTT cytopathic procedure (EC50); details: for TI (therapeutic index, TC50/EC50): CEM cells; for EC50: Human immunodeficiency virus 1, CCRF-CEM, read-out: Antiviral Efficacy EC50
Protocol: (§1) Compound concentrations were 0.32, 1, 3.2, 10, 32, and 100 uM.

[3] = Cellular toxicity in uninfected CEM cells, XTT (TC50); details: human, uninfected CEM cells (lymphocyte derived)
Protocol: as §1

[4] = recombinant HIV-1 protease, read-out: Inhib of HIV Protease KI

SMILES | Ki [1] [pM] | TI (therapeutic index, TC50/EC50) [2] | EC50 [2] [µM] | CC50 [3] [µM] | Ki [1, 4] [pM]
Cc1cnc(CCC2(C(C)C)CC(O)=C(Sc3cc(C)c(CO)cc3C(C)(C)C)C(=O)O2)s1 (racemic) [Example 28, 3-(2-tert-Butyl-4-hydroxymethyl-5-methyl-phenylsulfanyl)-4-hydroxy-6-isopropyl-6-[2-(5-methyl-thiazol-2-yl)-ethyl]-5,6-dihydro-pyran-2-one] | 240 | 120 | 1.9 | 229 | 
Cc1cc(SC2=C(O)CC(CCc3csc(C(C)C)n3)(C(C)C)OC2=O)c(C(C)(C)C)cc1CO (racemic) [Example 32, 3-(2-tert-Butyl-4-hydroxymethyl-5-methyl-phenylsulfanyl)-4-hydroxy-6-isopropyl-6-[2-(2-isopropyl-thiazol-4-yl)-ethyl]-5,6-dihydro-pyran-2-one] | 1600 | 4 | 23 | 91 | 
Cc1cc(SC2=C(O)CC(CCc3scnc3C(C)C)(C(C)C)OC2=O)c(C(C)(C)C)cc1CO (racemic) [Example 33, 3-(2-tert-Butyl-4-hydroxymethyl-5-methyl-phenylsulfanyl)-4-hydroxy-6-isopropyl-6-[2-(4-isopropyl-thiazol-5-yl)-ethyl]-5,6-dihydro-pyran-2-one] |  | 72 | 1.4 | 101 | 
Cc1cc(SC2=C(O)CC(CCc3ccsc3)(C(C)C)OC2=O)c(C(C)(C)C)cc1N (racemic) [Example 35, 3-(4-Amino-2-tert-butyl-5-methyl-phenylsulfanyl)-4-hydroxy-6-isopropyl-6-(2-thiophen-3-yl-ethyl)-5,6-dihydro-pyran-2-one] | 880 | 48 | 1.5 | 72 | 
Cc1cc(SC2=C(O)CC(CCc3ccc(CO)s3)(C(C)C)OC2=O)c(C(C)(C)C)cc1O (racemic) [Example 37, 3-(2-tert-Butyl-4-hydroxy-5-methyl-phenylsulfanyl)-4-hydroxy-6-[2-(5-hydroxymethyl-thiophen-2-yl)-ethyl]-6-isopropyl-5,6-dihydro-pyran-2-one] | 370 | 24 | 4.2 | 100 | 
Cc1cc(SC2=C(O)CC(CCc3ccc(CO)s3)(C(C)C)OC2=O)c(C(C)(C)C)cc1N (racemic) [Example 38, 3-(4-Amino-2-tert-butyl-5-methyl-phenylsulfanyl)-4-hydroxy-6-[2-(5-hydroxymethyl-thiophen-2-yl)-ethyl]-6-isopropyl-5,6-dihydro-pyran-2-one] | 330 | 113 | 1.1 | 124 | 
Cc1cc(SC2=C(O)CC(CCc3cc[nH]n3)(C(C)C)OC2=O)c(C(C)(C)C)cc1CO (racemic) [Example 40, 3-(2-tert-Butyl-4-hydroxymethyl-5-methyl-phenylsulfanyl)-4-hydroxy-6-isopropyl-6-[2-(1H-pyrazol-3-yl)-ethyl]-5,6-dihydro-pyran-2-one] | 280 | >57 | 5.6 | > 320 | 
Cc1cc(SC2=C(O)CC(CCc3cncnc3)(C(C)C)OC2=O)c(C(C)(C)C)cc1CO (racemic) [Example 42, 3-(2-tert-Butyl-4-hydroxymethyl-5-methyl-phenylsulfanyl)-4-hydroxy-6-isopropyl-6-(2-pyrimidin-5-yl-ethyl)-5,6-dihydro-pyran-2-one] |  | >159 | 1.3 | > 200 | 
Cc1ccc(C(C)(C)C)c(SC2=C(O)CC(CCc3ccc(CO)s3)(C(C)C)OC2=O)c1 (racemic) [Example 55, 3-(2-tert-Butyl-5-methyl-phenylsulfanyl)-4-hydroxy-6-[2-(5-hydroxymethyl-thiophen-2-yl)-ethyl]-6-isopropyl-5,6-dihydro-pyran-2-one] | 1700 | 8 | 8.3 | 66 | 
Cc1cc(SC2=C(O)CC(CCC3CCCO3)(C(C)C)OC2=O)c(C(C)(C)C)cc1N (racemic) [Example 56, 3-(4-Amino-2-tert-butyl-5-methyl-phenylsulfanyl)-4-hydroxy-6-isopropyl-6-[2-(tetrahydro-furan-2-yl)-ethyl]-5,6-dihydro-pyran-2-one] | 11000 | 21 | 10 | 210 | 
Cc1cc(SC2=C(O)CC(CCc3ccsc3)(C(C)C)OC2=O)c(C(C)(C)C)cc1NS(=O)(=O)c1ccc(C(F)(F)F)cn1 (racemic) [Example 59, 5-Trifluoromethyl-pyridine-2-sulfonic acid {5-tert-butyl-4-[4-hydroxy-6-isopropyl-2-oxo-6-(2-thiophen-3-yl-ethyl)-5,6-dihydro-2H-pyran-3-ylsulfanyl]-2-methyl-phenyl}-amide] | 80 | 110 | 0.6 | 66 | 
Cc1cc(SC2=C(O)CC(CCc3ccc4[nH]ccc4c3)(C(C)C)OC2=O)c(C(C)(C)C)cc1CO (racemic) [Example 61, 3-(2-tert-Butyl-4-hydroxymethyl-5-methyl-phenylsulfanyl)-4-hydroxy-6-[2-(1H-indol-5-yl)-ethyl]-6-isopropyl-5,6-dihydro-pyran-2-one] | 980 | 68 | 0.68 | 46 | 
Cc1cc(SC2=C(O)CC(CCc3sccc3C)(C(C)C)OC2=O)c(C(C)(C)C)cc1N (racemic) [Example 65, 3-(4-Amino-2-tert-butyl-5-methyl-phenylsulfanyl)-4-hydroxy-6-isopropyl-6-[2-(3-methyl-thiophen-2-yl)-ethyl]-5,6-dihydro-pyran-2-one] | 1200 | 54 | 1.1 | 60 | 
CC(C)C1(CCc2ccsc2)CC(O)=C(Sc2cc3sc(N)nc3cc2C(C)(C)C)C(=O)O1 (racemic) [Example 82] | 1100 | 109 | 0.7 | 76 | 
Cc1c(F)cccc1CCC1(C(C)C)CC(O)=C(Sc2cc3sc(N)nc3cc2C(C)(C)C)C(=O)O1 (racemic) [Example 84, 3-(2-Amino-5-tert-butyl-benzothiazol-6-ylsulfanyl)-6-[2-(3-fluoro-2-methyl-phenyl)-ethyl]-4-hydroxy-6-isopropyl-5,6-dihydro-pyran-2-one] | 800 | 198 | 0.47 | 93 | 
Cc1cc(SC2=C(O)CC(CCc3csc(N)n3)(C(C)C)OC2=O)c(C(C)(C)C)cc1CO (racemic) [Example 89, 6-[2-(2-Amino-thiazol-4-yl)-ethyl]-3-(2-tert-butyl-4-hydroxymethyl-5-methyl-phenylsulfanyl)-4-hydroxy-6-isopropyl-5,6-dihydro-pyran-2-one] | 950 | >57 | 3.5 | > 200 | 
Cc1cc(SC2=C(O)CC(CCc3ccncc3)(C(C)C)OC2=O)c(C(C)(C)C)cc1CO (stereo not shown) [Example 1, 3-(2-tert-Butyl-4-hydroxymethyl-5-methyl-phenylsulfanyl)-4-hydroxy-6-isopropyl-6-(2-pyridin-4-yl-ethyl)-5,6-dihydro-pyran-2-one] |  | 197 | 1.5 | 296 | 1500
Cc1cc(SC2=C(O)CC(CCc3cccnc3)(C(C)C)OC2=O)c(C(C)(C)C)cc1CO (stereo not shown) [Example 2, 3-(2-tert-Butyl-4-hydroxymethyl-5-methyl-phenylsulfanyl)4-hydroxy-6-isopropyl-6-(2-pyridin-3-yl-ethyl)-5,6-dihydro-pyran-2-one] |  |  |  |  | 900
Cc1cc(SC2=C(O)C[C@@](CCc3ccccc3)(C(C)C)OC2=O)c(C(C)C)c2sc(N)nc12 [Example 17, (S)-3-(2-Amino-7-isopropyl-4-methyl-benzothiazol-6-yl-sulfanyl)-4-hydroxy-6-isopropyl-6-phenethyl-5,6-dihydro-pyran-2-one] |  | 16 | 2.7 | 42 | 
Cc1cc(SC2=C(O)C[C@@](CCc3ccc(O)cc3)(C(C)C)OC2=O)c(C(C)C)c2sc(N)nc12 [Example 18, (S)-3-(2-Amino-7-isopropyl-4-methyl-benzothiazol-6-ylsulfanyl)-4-hydroxy-6-[2-(4-hydroxyl-phenyl)-ethyl]-6-isopropyl-5,6-dihydro-pyran-2-one] |  | 105 | 1.1 | 117 | 
Cc1cc(SC2=C(O)CC(CCc3scnc3C)(C(C)C)OC2=O)c(C(C)(C)C)cc1CO (stereo not shown) [Example 24, 3-(2-tert-Butyl-4-hydroxymethyl-5-methyl-phenylsulfanyl)-4-hydroxy-6-isopropyl-6-[2-(4-methyl-thiazol-5-yl)-ethyl]-5,6-dihydro-pyran-2-one] |  | 443 | 0.37 | 164 | 
